Laboratory results reported in PubChem BioAssay AID2060892 (Molecular Pharmacology Branch, DTP, NCI, 2025).
pIC50: −log10 of the molar value.

System: HOP-62 complex spheroids with HUVEC/MSC, viability
Assay: Anticancer human tumor HOP-62 cell line growth inhibition [RAS];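 further: spheroids exposed to agents for seven days before readout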;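 on viability, T/C: 100% = DMSO vehicle control viability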
Details: for pIC50: curve of first compound; for viability, T/C: stronger effect = lower value
Outline: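 Multi-cell-type spheroids: tumor cells plus HUVEC endothelial cells and mesenchymal stem cells. RAS-pathway inhibitors were combined with targeted agents, each dosed in half-log steps down from clinical Cmax, or from 10 microM when Cmax was unknown.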

Structure (SMILES): CCC(CC)c1cc(NC2CCC(N)C2)n2nccc2n1 (centres undefined) + CCn1c(-c2cccnc2C(C)OC)c2c3cc(ccc31)N1CCOC(CC(NC(=O)C(C(C)C)N(C)C(=O)C3(F)CCN(C(=O)C#CC(C)(C)N(C)C)CC3)C(=O)N3CCCC(N3)C(=O)OCC(C)(C)C2)C1
- pIC50 (second compound 0.000949 µM): 5.71
- pIC50 (second compound 0.003 µM): 5.70
- pIC50 (second compound 0.00949 µM): 5.73
- pIC50 (second compound 0.03 µM): 5.74
- pIC50 (second compound 0.0949 µM): 5.75
- pIC50 (second compound 0.3 µM): 5.77
- viability, T/C (second compound 0.000949 µM, first compound 0.0316 µM): 126%
- viability, T/C (second compound 0.000949 µM, first compound 0.1 µM): 107%
- viability, T/C (second compound 0.000949 µM, first compound 0.316 µM): 96.3%
- viability, T/C (second compound 0.000949 µM, first compound 1 µM): 110%
- viability, T/C (second compound 0.000949 µM, first compound 3.16 µM): 6.83%
- viability, T/C (second compound 0.000949 µM, first compound 10 µM): 1.38%
- viability, T/C (second compound 0.003 µM, first compound 0.0316 µM): 116%
- viability, T/C (second compound 0.003 µM, first compound 0.1 µM): 101%
- viability, T/C (second compound 0.003 µM, first compound 0.316 µM): 109%
- viability, T/C (second compound 0.003 µM, first compound 1 µM): 118%
- viability, T/C (second compound 0.003 µM, first compound 3.16 µM): 7.77%
- viability, T/C (second compound 0.003 µM, first compound 10 µM): 0.66%
- viability, T/C (second compound 0.00949 µM, first compound 0.0316 µM): 91.4%
- viability, T/C (second compound 0.00949 µM, first compound 0.1 µM): 96.5%
- viability, T/C (second compound 0.00949 µM, first compound 0.316 µM): 101%
- viability, T/C (second compound 0.00949 µM, first compound 1 µM): 121%
- viability, T/C (second compound 0.00949 µM, first compound 3.16 µM): 5.15%
- viability, T/C (second compound 0.00949 µM, first compound 10 µM): 0.65%
- viability, T/C (second compound 0.03 µM, first compound 0.0316 µM): 98.5%
- viability, T/C (second compound 0.03 µM, first compound 0.1 µM): 99.6%
- viability, T/C (second compound 0.03 µM, first compound 0.316 µM): 100%
- viability, T/C (second compound 0.03 µM, first compound 1 µM): 113%
- viability, T/C (second compound 0.03 µM, first compound 3.16 µM): 2.86%
- viability, T/C (second compound 0.03 µM, first compound 10 µM): 0.81%
- viability, T/C (second compound 0.0949 µM, first compound 0.0316 µM): 91.7%
- viability, T/C (second compound 0.0949 µM, first compound 0.1 µM): 98.4%
- viability, T/C (second compound 0.0949 µM, first compound 0.316 µM): 96.9%
- viability, T/C (second compound 0.0949 µM, first compound 1 µM): 104%
- viability, T/C (second compound 0.0949 µM, first compound 3.16 µM): 1.59%
- viability, T/C (second compound 0.0949 µM, first compound 10 µM): 0.78%
- viability, T/C (second compound 0.3 µM, first compound 0.0316 µM): 82.5%
- viability, T/C (second compound 0.3 µM, first compound 0.1 µM): 86.8%
- viability, T/C (second compound 0.3 µM, first compound 0.316 µM): 95%
- viability, T/C (second compound 0.3 µM, first compound 1 µM): 95%
- viability, T/C (second compound 0.3 µM, first compound 3.16 µM): 3.22%
- viability, T/C (second compound 0.3 µM, first compound 10 µM): 1.08%

Structure (SMILES): O=C(c1ccc(F)c(F)c1Nc1ccc(I)cc1F)N1CC(O)([C@@H]2CCCCN2)C1 + C=CC(=O)N1CCN(c2nc(OCC3CCCN3C)nc3c(F)c(-c4nc(N)cc(C)c4C(F)(F)F)c(Cl)cc23)C(C)C1
- pIC50 (second compound 0.00316 µM): 7.33
- pIC50 (second compound 0.01 µM): 7.42
- pIC50 (second compound 0.0316 µM): 7.70
- pIC50 (second compound 0.1 µM): 7.64
- pIC50 (second compound 0.316 µM): 7.85
- pIC50 (second compound 1 µM): 7.75
- viability, T/C (second compound 0.00316 µM, first compound 0.00316 µM): 77.1%
- viability, T/C (second compound 0.00316 µM, first compound 0.01 µM): 77.8%
- viability, T/C (second compound 0.00316 µM, first compound 0.0316 µM): 55.2%
- viability, T/C (second compound 0.00316 µM, first compound 0.1 µM): 36.5%
- viability, T/C (second compound 0.00316 µM, first compound 0.316 µM): 20%
- viability, T/C (second compound 0.00316 µM, first compound 1 µM): 19.2%
- viability, T/C (second compound 0.01 µM, first compound 0.00316 µM): 68.2%
- viability, T/C (second compound 0.01 µM, first compound 0.01 µM): 65.5%
- viability, T/C (second compound 0.01 µM, first compound 0.0316 µM): 52.2%
- viability, T/C (second compound 0.01 µM, first compound 0.1 µM): 35.1%
- viability, T/C (second compound 0.01 µM, first compound 0.316 µM): 18.8%
- viability, T/C (second compound 0.01 µM, first compound 1 µM): 15%
- viability, T/C (second compound 0.0316 µM, first compound 0.00316 µM): 68.1%
- viability, T/C (second compound 0.0316 µM, first compound 0.01 µM): 60.1%
- viability, T/C (second compound 0.0316 µM, first compound 0.0316 µM): 42.2%
- viability, T/C (second compound 0.0316 µM, first compound 0.1 µM): 30.6%
- viability, T/C (second compound 0.0316 µM, first compound 0.316 µM): 15.1%
- viability, T/C (second compound 0.0316 µM, first compound 1 µM): 13.3%
- viability, T/C (second compound 0.1 µM, first compound 0.00316 µM): 64.8%
- viability, T/C (second compound 0.1 µM, first compound 0.01 µM): 54.5%
- viability, T/C (second compound 0.1 µM, first compound 0.0316 µM): 49.3%
- viability, T/C (second compound 0.1 µM, first compound 0.1 µM): 27.8%
- viability, T/C (second compound 0.1 µM, first compound 0.316 µM): 15.7%
- viability, T/C (second compound 0.1 µM, first compound 1 µM): 10.7%
- viability, T/C (second compound 0.316 µM, first compound 0.00316 µM): 57%
- viability, T/C (second compound 0.316 µM, first compound 0.01 µM): 57.2%
- viability, T/C (second compound 0.316 µM, first compound 0.0316 µM): 38.7%
- viability, T/C (second compound 0.316 µM, first compound 0.1 µM): 28%
- viability, T/C (second compound 0.316 µM, first compound 0.316 µM): 16.6%
- viability, T/C (second compound 0.316 µM, first compound 1 µM): 10.5%
- viability, T/C (second compound 1 µM, first compound 0.00316 µM): 63.6%
- viability, T/C (second compound 1 µM, first compound 0.01 µM): 59.4%
- viability, T/C (second compound 1 µM, first compound 0.0316 µM): 40.6%
- viability, T/C (second compound 1 µM, first compound 0.1 µM): 24.3%
- viability, T/C (second compound 1 µM, first compound 0.316 µM): 13.1%
- viability, T/C (second compound 1 µM, first compound 1 µM): 9.01%
